According to patent US10548940B2, “Pharmaceutical composition for controlling blood lipids and body weight, and use thereof” (BEIJING HEBABIZ MANAGEMENT CO., LTD, priority 2014, dated 2020):

Tests used:
hyperlipidemia rats [1] = assay: Effect of drugs on reducing blood lipid and body weight in high fat diet rats (Examples 5); assay type: in vivo, Wistar rats
Method: Take the medicine ZL004, ZL005 and ZL006, 0.5% CMC-Na (carboxymethyl cellulose sodium) solution (25 mg/ml or 50 mg/ml); take atorvastatin as positive control drug (0.5% CMC-Na solution, 0.5 mg/ml), for the following experiment.
120 Wistar rats (male weight; 150 g; feeding environment: SPF grade animal room, free feeding, 12 h light/12 h dark) after adaptive breeding for one week, were randomly divided into normal control group (10 rats) and high-fat diet group (110 rats), and each rat was then numbered. The normal control group were fed with normal diet, high fat diet group were fed with high fat diet (78.8% basal diet (purchased from Beijing, Australia to feed Co. Ltd.) +1% cholesterol, +10% egg yolk powder, +10% lard, +0.2% sodium cholate), 30 days later, after determination, the hyperlipemia rats of high fat diet group were randomly divided into 10 groups (high fat model group, atorvastatin group (atorvastatin 5 mg/kg daily administration), ZL004 high dose group (daily administration of ZL004 500 mg/kg), ZL004 low dose group (daily administration of ZL004 […]), ZL005 high dose group (daily administration of ZL005 500 mg/kg), ZL005 low dose group (daily administration of ZL005 […]), ZL006 high dose group (daily administration of ZL006 500 mg/kg), ZL006 low dose group (daily administration of ZL006 […]), 10 rats in each group. The normal control group and high fat model group daily orally administered 0.5% CMC-Na solution, drug admonition group were orally administered with corresponding drugs administered continuously for 30 days to determine the levels of total cholesterol (TC), triacylglycerol (TG), high density lipoprotein cholesterol (HDL-C), low density lipoprotein cholesterol (LDL-C) and weight. No safety problems were found in the experiment.

hyperlipidemia rats [2] = assay: Further study on the effect of drugs on lowering blood fat and body weight in high fat diet rats, lower doses (Examples 6); assay type: in vivo, Wistar rats
Method: Take ZL004, ZL051 and ZL006 (0.5% CMC-Na solution, 7.5 mg/ml, 15 mg/ml, or 30 mg/ml), take atorvastatin as positive control drug (0.5% CMC-Na solution, 0.5 mg/ml), for the following experiment.
130 Wistar rats (male weight; 150 g; feeding environment: SPF grade animal room, free feeding, 12 h light/12 h dark) after adaptive breeding for one week, were randomly divided into normal control group (10 rats) and high-fat diet group (120 rats), and each rat was then numbered. The normal control group were fed with normal diet, high fat diet group were fed with high fat diet (78.8% basal diet (purchased from Beijing, Australia to feed Co. Ltd.)+1% cholesterol, +10% egg yolk powder, +10% lard, +0.2% sodium cholate), After 30 days, after determination, the hyperlipemia rats of high fat diet group were randomly divided into 10 groups (high fat model group, atorvastatin group (atorvastatin 5 mg/kg daily administration), ZL004 high dose group (daily administration of ZL004 300 mg/kg), ZL004 middle dose group (daily administration of ZL004 150 mg/kg), ZL004 low dose group (daily administration of ZL004 75 mg/kg), ZL051 high dose group (daily administration of ZL051 300 mg/kg), ZL051 middle dose group (daily administration of ZL051 150 mg/kg), ZL051 low dose group (daily administration of ZL051 75 mg/kg), ZL006 high dose group (daily administration of ZL006 300 mg/kg), ZL006 middle dose group (daily administration of ZL006 150 mg/kg), ZL006 low dose group (daily administration of ZL006 75 mg/kg), 10 rats in each group. The normal control group and high fat model group daily orally administered 0.5% CMC-Na solution, drug admonition group were orally administered with corresponding drugs administered continuously for 30 days to determine the levels of total cholesterol (TC), triacylglycerol (TG), high density lipoprotein cholesterol (HDL-C), low density lipoprotein cholesterol (LDL-C) and weight. No safety problems found in the experiment.

[3] = each dose (250 and 500 mg/kg), atorvastatin 5 mg/kg, oral daily 30 days, versus model group
[4] = high fat diet hyperlipidemia rats, oral daily for 30 days, 5 mg/kg, model group = 100%
[5] = high fat diet hyperlipidemia rats, oral daily for 30 days, 5 mg/kg, x ± s, n = 10
[6] = serum HDL cholesterol, high fat rats, oral daily 30 days, 5 mg/kg, model group = 100%, x ± s, n = 10
[7] = serum LDL cholesterol, high fat rats, oral daily 30 days, 5 mg/kg, model group = 100%, x ± s, n = 10
[8] = serum total cholesterol, high fat rats, oral daily 30 days, 5 mg/kg, model group = 100%, x ± s, n = 10
[9] = serum triacylglycerol, high fat rats, oral daily 30 days, 5 mg/kg, model group = 100%, x ± s, n = 10

How did the “effect on the body weight of hyperlipidemia rats (in words)” value (hyperlipidemia rats [1]; each dose (250 and 500 mg/kg), atorvastatin 5 mg/kg, oral daily 30 days, versus high fat model group) turn out when `CC(C)c1c(C(=O)Nc2ccccc2)c(-c2ccccc2)c(-c2ccc(F)cc2)n1CC[C@@H](O)C[C@@H](O)CC(=O)O` [Atorvastatin, atorvastatin] was run?
The value was “reduced the body weight, close to or even lower than the normal control group”.

And the “effect on HDL-C (in words)” value (hyperlipidemia rats [1]; [3])?
The value was “significantly increase”.

What about the “effect on rat serum TC, TG, LDL-C (in words)” value (hyperlipidemia rats [1]; [3]) of the same compound?
Its value is “significantly reduce”.

What about the “body weight % (/high fat model group)” value (hyperlipidemia rats [1]; [4]) of the same compound?
The value was 90.77 ± 9.22%.

What about the “body weight” value (hyperlipidemia rats [1]; [5]) of the same compound?
The value was 520.1 ± 52.8 g.

And the “HDL-C % (/model group)” value (hyperlipidemia rats [1]; [6])?
The value was 178.57 ± 57.92 %.

What about the “LDL-C % (/model group)” value (hyperlipidemia rats [1]; [7]) of the same compound?
Its value is 33.13 ± 11.62 %.

What about the “TC % (/model group)” value (hyperlipidemia rats [1]; [8]) of the same compound?
Its value is 81.77 ± 14.65 %.

And the “TG % (/model group)” value (hyperlipidemia rats [1]; [9])?
Its value is 70.50 ± 23.19 %.

And the “effect on the body weight of hyperlipidemia rats (in words)” value (hyperlipidemia rats [2]; each dose (75, 150, 300 mg/kg), atorvastatin 5 mg/kg, oral daily 30 days, versus high fat model group)?
The value was “reduced the body weight, close to or even lower than the normal control group”.

And the “effect on HDL-C (in words)” value (hyperlipidemia rats [2]; each dose (75, 150, 300 mg/kg), atorvastatin 5 mg/kg, oral daily 30 days, versus model group)?
The value was “significantly increase”.

And the “body weight % (/high fat model group)” value (hyperlipidemia rats [2]; [4])?
Its value is 90.37 ± 12.13%.

What about the “body weight” value (hyperlipidemia rats [2]; [5]) of the same compound?
The value was 465.7 ± 62.5 g.

And the “effect on rat serum TC, TG, LDL-C (in words)” value (hyperlipidemia rats [2]; middle/high doses (150, 300 mg/kg), atorvastatin 5 mg/kg, oral daily 30 days, versus model group)?
The value was “significantly reduce”.

What about the “HDL-C % (/model group)” value (hyperlipidemia rats [2]; [6]) of the same compound?
The value was 176.99 ± 37.57 %.

What about the “LDL-C % (/model group)” value (hyperlipidemia rats [2]; [7]) of the same compound?
The value was 67.93 ± 29.54 %.

And the “TC % (/model group)” value (hyperlipidemia rats [2]; [8])?
Its value is 77.03 ± 23.18 %.

What about the “TG % (/model group)” value (hyperlipidemia rats [2]; [9]) of the same compound?
Its value is 69.99 ± 17.21 %.
